Reference: PMC12220852, “An adamantane‐based ligand as a novel chemical tool for thermosensory TRPM8 channel therapeutic modulation” (The Febs Journal, 2025)
Several values for one entry are separate records, joined by “and”; a condition that tells them apart may be missing. Equal entries are not always repeated.

How the values were obtained:
hTRPM8 = biological target: T1, hTRPM8 (Homo sapiens, UniProt Q7Z2W7); experiment: Whole-cell patch-clamp of WS-12-evoked currents in HEK293 cells expressing hTRPM8; assay type: cell-based
T1 construct: expressed in transfected cells; host or cells: HEK293 (transient, Lipofectamine 3000)
T1 sequence (Q7Z2W7 whole entry): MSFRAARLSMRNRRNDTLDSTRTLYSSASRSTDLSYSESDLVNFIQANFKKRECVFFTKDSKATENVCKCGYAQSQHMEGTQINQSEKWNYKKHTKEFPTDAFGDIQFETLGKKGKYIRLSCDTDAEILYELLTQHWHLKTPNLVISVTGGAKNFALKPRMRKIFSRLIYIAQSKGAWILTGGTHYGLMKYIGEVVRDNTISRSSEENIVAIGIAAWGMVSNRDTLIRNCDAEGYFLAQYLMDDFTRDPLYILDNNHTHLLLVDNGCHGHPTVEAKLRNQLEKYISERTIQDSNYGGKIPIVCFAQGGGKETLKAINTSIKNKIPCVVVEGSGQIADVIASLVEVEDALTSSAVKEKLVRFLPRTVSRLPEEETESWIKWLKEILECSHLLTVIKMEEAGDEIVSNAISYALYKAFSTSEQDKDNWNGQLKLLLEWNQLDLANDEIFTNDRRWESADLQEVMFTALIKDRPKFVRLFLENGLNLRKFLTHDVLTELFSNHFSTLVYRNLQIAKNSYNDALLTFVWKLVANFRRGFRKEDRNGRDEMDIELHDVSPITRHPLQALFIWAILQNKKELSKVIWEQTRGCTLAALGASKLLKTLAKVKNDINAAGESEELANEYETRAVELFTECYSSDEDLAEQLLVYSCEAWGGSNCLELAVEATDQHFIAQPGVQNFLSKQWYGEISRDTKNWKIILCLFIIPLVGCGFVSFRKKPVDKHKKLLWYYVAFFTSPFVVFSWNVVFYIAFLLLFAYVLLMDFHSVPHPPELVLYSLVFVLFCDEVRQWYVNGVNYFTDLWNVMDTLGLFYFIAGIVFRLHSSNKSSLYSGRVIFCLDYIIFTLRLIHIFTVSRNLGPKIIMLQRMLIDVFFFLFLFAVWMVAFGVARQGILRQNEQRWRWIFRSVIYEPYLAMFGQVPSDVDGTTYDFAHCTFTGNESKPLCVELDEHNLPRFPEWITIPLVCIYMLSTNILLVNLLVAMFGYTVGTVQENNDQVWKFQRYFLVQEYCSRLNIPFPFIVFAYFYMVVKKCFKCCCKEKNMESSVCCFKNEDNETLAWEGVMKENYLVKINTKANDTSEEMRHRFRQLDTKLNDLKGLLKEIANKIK
Description: We first used patch‐clamp to investigate the potency and blockade mechanism of compound 23 inhibiting WS‐12 evoked ionic currents in hTRPM8‐HEK293 cells. […] This blockade activity was reversible as virtually all WS‐12‐evoked ionic current could be recovered upon washout (Fig. 3A, bottom panel), thus preventing a use‐dependent side effect.
To unveil the underlying mechanism of channel blockade (competitive vs noncompetitive) we evaluated the effect of the α‐acyloxy carboxamide 23 on WS‐12 activating potency. For this purpose, we obtained the WS‐12 dose response in the absence and presence of 80 nM compound 23 (corresponding to its IC50 value).
For this purpose, we run 100 ms voltage ramps from −120 to 120 mV activated by WS‐12 in the absence and presence of 80 nM α‐acyloxy carboxamide 23.
(§1) Recording through patch‐clamp techniques was performed on HEK293 cells cultured in DMEM GlutaMax with 10% FBS and 1% P/S. The cell lines were authenticated following the standardization of STR Profiling guidelines (ANSI/ATCC ASN‐0002‐2022) using the CLA Identifier Plus PCR Amplification Kit (Thermo Fisher‐A44660) to analyze 16 highly variant human STRs. The cells were confirmed to be mycoplasma‐free. These cells were transiently transfected with plasmids encoding hTRPV1, hTRPM8, or hTRPA1 using Lipofectamine 3000. Transfected cells were seeded on 12 mm Ø glass coverslips treated with poly‐L‐lysine solution and recorded 2 days post‐transfection. The intracellular pipette solution included (in mM) 150 NaCl, 3 MgCl2, 5 EGTA, and 10 HEPES, pH 7.2 with CsOH, while the extracellular solution contained (in mM) 150 NaCl, 6 CsCl, 1 MgCl2, 1.5 CaCl2, 10 glucose, and 10 HEPES, pH 7.4 with NaOH. An EPC‐10 amplifier with Patchmaster software was used in whole‐cell experiments. Patch pipettes, created from thin‐wall borosilicate capillary glass tubing, were pulled with a Micropipette puller to a final resistance of 2–8 MΩ when filled with the internal solution. Recordings were acquired at 10 kHz and low‐pass filtered at 3 kHz, discarding recordings with leak currents > 200pA or series resistance > 20 MΩ. In voltage‐clamp recordings, cells were held at a constant potential, and the application of modulators was carried out using a gravity‐driven perfusion system. Total currents were normalized to the first current peak evoked by the activating stimuli. To study the effect of compound 23 on TRPM8 voltage dependence, a voltage step protocol from −120 to 120 mV was used with 100 ms steps of 20 mV from a holding potential at 0 mV. Leak currents were not subtracted, and conductance was calculated using the equation: G = I/(V − V r), where I is the measured ionic current, V is the applied voltage, and V r is the reversal potential that for the ionic conditions used was set to 0 mV.
Dose–response relationships for WS‐12 channel activation were normalized to the response of the channel to a saturating concentration of the agonist. Similarly, dose–response curves for blockade activity were normalized with respect to the response in the absence of the blocker. The experimental data were fitted to the Hill equation: Y=Bottom+Top‐Bottom/(1+10^ligand−LogIC50orLogEC50) using PRISM 9 software. Top was fixed to 100, as the unblocked response or the maximal response for WS‐12.

[1] = Metabolic stability and metabolite profile in mouse liver microsomes (MLM); assay type: in vitro ADME; settings: after 1 h at 37 °C, 50 μM substrate
Protocol: Because of the lack of systemic activity of compound 23, we evaluated the in vitro plasmatic and hepatic metabolic stability. To this aim, compound 23 was exposed to mouse plasma and mouse liver microsome (MLM) fractions, and the residual substrate was measured after 1 h. Under these conditions, the residual substrate was about 97% and 90% in plasma and microsomes, respectively, denoting that this molecule suffers from mild hydrolysis of the ester group.
Metabolic biotransformation of compound 23 was investigated by tandem high‐resolution mass spectrometry using the software COMPOUND DISCOVERER 3.2™.
The standard incubation mixture (250 μL final volume) was carried out in a 50 mM Tris (tris[hydroxymethyl]aminomethane) buffer (pH 7.4) containing 150 mM KCl, […], 3.3 mM MgCl2, 1.3 mM NADPNa2, 3.3 mM glucose 6‐phosphate, 0.4 units·mL^−1 glucose 6‐phosphate dehydrogenase, acetonitrile as cosolvent (1% of total volume), and the substrate (50 μM). After pre‐equilibration of the mixture, an appropriate volume of MLM suspension was added to give a final protein concentration of 1.0 mg·mL^−1. The mixture was shaken for 60 min at 37 °C using a horizontal shaking thermostatic bath while protecting the samples from light. Control incubations were carried out without the presence of substrate, or NADPH regenerating system, or microsomes. Each incubation was stopped by the addition of 250 μL of ice‐cold acetonitrile, vortexed, and centrifuged at 13 000 r.p.m. for 5 min [68]. The supernatants were analyzed by LC‐UV and LC‐HRMS equipment (see Tables S1 and S2, Fig. S79 for full parameters setting in the Supporting Information).
The metabolic stability of the compound 23 was determined in vitro by measuring the residual peak area after incubation by LC‐UV analysis. Samples were further processed by LC‐HRMS equipment for metabolite profiling. Raw data files were processed using both XCALIBUR® and COMPOUND DISCOVERER 3.2® software (Thermo Scientific) using a customized workflow for the detection and identification of the expected and unknown metabolites (Fig. S80).

hTRPA1 = biological target: T2, hTRPA1 (Homo sapiens, UniProt O75762); experiment: Whole-cell patch-clamp of AITC-evoked currents in HEK293 cells expressing hTRPA1; assay type: cell-based; settings: −60 mV
T2 construct: expressed in transfected cells; host or cells: HEK293 (transient, Lipofectamine 3000)
T2 sequence (O75762 whole entry): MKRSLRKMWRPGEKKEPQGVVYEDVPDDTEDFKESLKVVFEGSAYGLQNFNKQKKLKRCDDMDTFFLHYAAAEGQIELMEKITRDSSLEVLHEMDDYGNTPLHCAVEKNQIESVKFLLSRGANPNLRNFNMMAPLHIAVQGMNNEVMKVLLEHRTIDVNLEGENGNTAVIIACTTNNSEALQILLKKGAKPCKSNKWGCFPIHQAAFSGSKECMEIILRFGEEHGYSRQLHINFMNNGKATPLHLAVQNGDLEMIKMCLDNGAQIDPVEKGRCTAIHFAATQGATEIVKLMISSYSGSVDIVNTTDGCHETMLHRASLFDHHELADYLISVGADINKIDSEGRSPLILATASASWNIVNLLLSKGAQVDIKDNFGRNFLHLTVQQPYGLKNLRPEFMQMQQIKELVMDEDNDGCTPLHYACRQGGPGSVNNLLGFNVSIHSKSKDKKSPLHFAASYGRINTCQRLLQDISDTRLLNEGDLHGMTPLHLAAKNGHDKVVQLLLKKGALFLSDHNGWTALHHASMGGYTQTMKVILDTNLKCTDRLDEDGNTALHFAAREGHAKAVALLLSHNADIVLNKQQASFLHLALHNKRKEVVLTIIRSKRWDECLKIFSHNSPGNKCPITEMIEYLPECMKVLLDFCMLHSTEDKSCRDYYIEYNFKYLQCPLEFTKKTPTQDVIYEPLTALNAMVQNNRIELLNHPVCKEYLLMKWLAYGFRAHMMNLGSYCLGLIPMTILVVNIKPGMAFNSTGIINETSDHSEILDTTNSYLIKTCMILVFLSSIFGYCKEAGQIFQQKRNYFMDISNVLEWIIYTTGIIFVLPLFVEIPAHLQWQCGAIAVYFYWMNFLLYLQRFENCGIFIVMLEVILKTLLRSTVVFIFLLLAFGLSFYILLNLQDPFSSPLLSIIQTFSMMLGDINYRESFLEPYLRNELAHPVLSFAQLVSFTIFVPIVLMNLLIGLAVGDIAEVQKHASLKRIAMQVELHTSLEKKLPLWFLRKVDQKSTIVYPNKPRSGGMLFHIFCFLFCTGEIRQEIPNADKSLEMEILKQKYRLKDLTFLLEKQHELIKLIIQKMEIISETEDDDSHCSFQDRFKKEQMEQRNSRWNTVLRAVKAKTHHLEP
Protocol: To evaluate receptor selectivity, we investigated the activity of compound 23 on recombinant hTRPV1 and hTRPA1 channels recombinantly expressed in HEK293 cells (Fig. 4). We choose these thermosensory channels because of their structural similarity and expression in peripheral nociceptive terminals. In addition, some ligand cross‐interaction within these channels has been reported.
as §1, with “Total currents were normalized to the first current peak evoked by the activating stimuli. To study the effect of compound 23 on TRPM8 voltage dependence, a voltage step protocol from −120 to 120 mV was used with 100 ms steps of 20 mV from a holding potential at 0 mV.” left out, “mV. […]” for “mV.”

## O=C(COC(=O)c1ccccc1-c1ccccc1)NC12CC3CC(CC(C3)C1)C2 [Compound 23, 2‐((3S,5S,7S)‐adamantan‐1‐ylamino)‐2‐oxoethyl [1,1′‐biphenyl]‐2‐carboxylate]
hTRPM8; 1 μM compound, 1 μM WS-12, holding potential −60 mV
  reduction of WS‐12 evoked inward current: ≥ 75%
hTRPM8; WS12 vs compound 23 at 0.02, 0.08, 0.1, 0.5 μM
  Schild plot slope: 1.003 and 1.0
hTRPM8; WS-12-evoked current recovered after washout
  reversibility of blockade upon washout: reversible
hTRPM8; WS-12 dose-response shift and Schild plot
  mechanism of channel blockade: competitive
hTRPM8; patch-clamp dose-response, −60 mV
  Hill coefficient of hTRPM8 current blockade: 1
hTRPM8; patch-clamp, WS-12 evoked current, −60 mV, N = 3, n = 10, read-out: IC50 of hTRPM8 current blockade
  IC50: 0.08 ± 0.07 µM
hTRPM8; voltage steps −120 to 120 mV, 0.08 μM compound 23, 10 μM AMTB
  voltage dependency of channel blockade: not voltage dependent
[1]
  residual substrate in mouse liver microsomes without NADPH regenerating system: ~90%
[1]; monooxygenase system activated
  residual substrate in mouse liver microsomes with NADPH regenerating system: about 42%
hTRPA1; 5 μM compound, 60 μM AITC
  block of hTRPA1‐evoked (AITC) current: ≈ 60%
hTRPA1; AITC-evoked current, n = 8, read-out: IC50 of hTRPA1 current blockade
  IC50: 3.04 ± 2.01 µM
